Patent US20240299334A1, “PHARMACEUTICAL COMPOSITION OF NAPHTHALENE DERIVATIVES AS MULTI-TARGETED THERAPEUTIC AGENTS FOR THE TREATMENT OF ALZHEIMER'S DISEASE” (CENTRO DE NEUROCIENCIAS DE CUBA, CNEURO, priority 2020, published 2024)

Legend:
[1] = tested on: memory loss induced by an acute administration of scopolamine (ESC); assay: Y-maze, short-term spatial memory, acute scopolamine (ESC) model; type: in vivo, mice
Experimental: Young male OF-1 mice (20-25 g), supplied by the National Center for the Laboratory Animals Production (CENPALAB, Cuba), were used. Before the experiment, the animals were adapted for seven days to laboratory conditions (controlled temperature 25±2° C., relative humidity 60±10% and light/dark cycles of 12 h). During this period, and during the experiment, the animals received ad libitum water and a standard diet for rodents supplied by CENPALAB. All procedures were carried out in accordance with the European Commission guidelines for the use and care of laboratory animals and approved by the Committee for the Care of Research Animals. The minimum number of animals and duration of observations required to obtain consistent data was used.
At the end of the adaptation period, the animals were randomly distributed according to their body weights in 5 experimental groups of 12 animals per group. Scopolamine hydrobromohydrate (ESC, Sigma Aldrich) was used to induce cognitive deficit, which was dissolved in physiological saline and administered intraperitoneally (ip) at a dose of 1.5 mg/kg, 30 minutes before the test (Miranda H F et al. in. J. Biomed. Sci., 2014 21 (1): 62-62). The doses of compound 3 used were 0.1, 1, 10 and 20 mg/kg of body weight. The compound was formulated using carboxymethyl cellulose (CMC). The administration scheme was designed as follows:
Group 1 (negative control) with normal cognitive function. Two administrations with an interval of 30 minutes with vehicle (5% CMC) by oral route and saline solution by i.p. route, respectively.
Group 2 (positive control) with cognitive dysfunction. Two administrations with an interval of 30 minutes, the first with vehicle (5% CMC), the second with ESC 1 mg/kg.
Group 3, 4, 5 and 6 treated with 3 (0.1, 1, 10 and 20 mg/kg). Two administrations with an interval of 30 minutes, the first with 3 at the dose corresponding to each group, the second with ESC 1 mg/kg. The behavioral evaluation was carried out 30 minutes after this second administration.
The study of short-term spatial memory was carried out through the study of novel spatial preference, using the Y-maze behavioral paradigm (40 cm long×9 cm wide×16 cm high) with extra-labyrinthine tracks around of the maze. The test consisted of two trials separated by an interval of 2 hours. In the first training test (acquisition), the mice were placed in the center of the maze and facing the end of one of the arms whose selection was random. After being positioned, they were allowed to explore the maze for 10 minutes with one of the arms closed (novel arm). At the end of this test, the mice were returned to their original cage until the second test (recovery), during which they could freely explore the three arms of the maze for 5 minutes. The total residence time (exploration) in each arm was measured and analyzed from video recordings. The entrance to the arm was defined as the entrance of the four legs of the animal in said arm. The residence time (sec) in each arm during the recovery test of the learned task was used for the statistical analysis. The maze was cleaned with 70% ethanol between runs. All mice were transported to the behavioral testing room in their home cages at least 1 day prior to testing. The experiments were carried out between 8:00 am and 12:30 pm.
All data are expressed as the mean±standard error of the mean (SEM). The Morris water maze data was analyzed in two ways. Escape latencies in the visible platform training phase were analyzed using a two-factor ANOVA (treatment×trial). For the study of long-term memory, the last escape latency value of the training phase with the visible platform (D1 V4) and the first value of the test with the hidden platform performed 24 h later (D2T1) were used. Mice with intact long-term memory capacity should quickly reach the hidden platform in the first test. A scoring system was generated with the difference D2T1−D1 V4 and with the ratio D2T1/D1V4. […]

SH-SY5Y cells = assay: Neuroprotection against glutamate-induced excitotoxic damage (MTT); conditions: 7.5 and 15 μmol/L; 24 h pre-treatment, then 60 mmol/L glutamate 24 h; p<0.05
Experimental: In addition, gentamicin (100 μg/mL) was added, then called complete medium (CM). […] The medium was changed every two days and the cells were subcultured every five days by trypsinization at a density of 4-5×10^6 cells/75 cm^2 flask for experimental work and/or subculture of a new generation of cells for later use.
Once the cell density was known, they were seeded in a 96-well culture plate (200 μL in each well) at a concentration of 80×10^4 cells/well.
Cell viability. MTT assays: Cell viability was measured through formazan blue products obtained from the enzymatic transformation of MTT (3-(4,5-dimethyl-2-thiazolyl)-2,5-diphenyl-2Htetrazoliumbromide) by mitochondrial dehydrogenases, which are active only in viable cells. […] Then 100 μL of isobutylalcohol (SDS 10%, 2-butanol 50%, 0.25 μL HCl 2 mmol/L) was added to each well to solubilize the formazan crystals, and the optical density of each well was measured before 30 minutes at 570 nm in a Clariostar spectrophotometer (BMG Labtech). The correction of the OD values was carried out at 690 nm. Three replications were carried out for each experiment. The results were expressed as the percentage of optical density of each experimental variant in relation to the Optical density obtained for the group of cells not treated with glutamate.

For `CSC(=S)NCCNC(=O)CCC(=O)Nc1cccc2ccccc12` [compound 3, methyl(2-{[4-(1-naphthylamino)-4-oxobutanoyl]amino}ethyl)dithiocarbamate], the “dose with the greatest effect” value ([1]; Y-maze, acute ESC model) was 1 mg/kg, the “residence (exploration) time in the novel arm” value ([1]; compound 3 at doses higher than 1 mg/kg (10, 20 mg/kg)) was “a decrease in this parameter was observed” and the “amnesia induced by ESC, preference for novel arm in Y-maze” value ([1]; compound 3 single doses 0.1 mg/kg to 10 mg/kg, 30 min before ESC, p<0.001) was “significantly reversed”. The “residence (exploration) time in the novel arm” value ([1]; compound 3 up to the 1 mg/kg dose, p<0.01 vs ESC) was “gradual increase in the exploration time, significantly different from the ESC group” and the “neuronal death generated by glutamate (MTT viability)” value (SH-SY5Y cells) was “significantly decreased”.
